Key:
[1] = tested on: LP-1 myeloma cells; assay: Cell viability MTS assay, LP1; type: cell-based; details: 72 hours
Procedure: (§1) LP-1 myeloma cells, MDAY-D2 murine leukemia/lymphoma cells, and OCI-AML2 human leukemia cells and A549 lung cancer cells were treated with increasing concentrations of compounds 5AHQ, HNQ, BCQ, COQ, and DiiodoQ (Table 1). 72 hours after incubation, cell viability was determined by an MTS assay. […] . Given the effects on cultured cells, 5AHQ was evaluated in a mouse model of leukemia. K562 cells were injected subcutaneously into NOD SCID mice. […] .

[2] = tested on: OCI-AML2 human leukemia cells; assay: Cell viability MTS assay, AML2; type: cell-based; details: 72 hours
Procedure: as §1

[3] = tested on: MDAY-D2 murine leukemia/lymphoma cells; assay: Cell viability MTS assay, MDAY-D2; type: cell-based; details: 72 hours
Procedure: as §1

[4] = tested on: A549 lung cancer cells; assay: Cell viability MTS assay, A549; type: cell-based; details: 72 hours
Procedure: as §1

[5] = Copper binding: stability constant and Cu:ligand ratio; type: physicochemical
[6] = tested on: K562 human leukemia cells; assay: K562 leukemia xenograft in NOD/SCID mice; type: in vivo
Procedure: Sublethally irradiated (3.54 Gy) NOD/SCID mice were injected subcutaneously with K562 human leukemia cells. One week later, mice were then treated daily by oral gavage with 5AHQ (50 mg/kg) in water. Three weeks after injection of cells, mice were sacrificed, the subcutaneous tumor excised, and the weight and volume of the tumor measured.
(§2) Given the effects on leukemia and lymphoma cell lines and primary patient samples, the compounds were tested in a leukemia/lymphoma xenograft model. MDAY-D2 leukemia/lymphoma cells were injected intraperitoneally into DBA2 mice. Mice were then treated twice daily with oral clioquinol (100 mg/kg) for 10 days. Ten days after treatment, mice were sacrificed and the weight and volume of the intraperitoneal tumor was measured. […] Similar results were obtained with a K562 leukemia, MDAY-D2 leukemia/lymphoma and OCI AML2 human leukemia xenograft (FIG. 4) K562 leukemia, MDAY-D2 leukemia/lymphoma or OCI AML2 human leukemia cells were injected subcutaneous into sublethally irradiated NOD-Scid mice. Animals were subsequently treated with 5AHQ. The 5AHQ treatment was initiated when tumors reached volumes of 200 mm^3 at which time mice were randomized to receive 100 mg/kg of 5AHQ (treated group) or buffer control (untreated group) for 5 of 7 days. Caliper measurements were performed twice weekly to estimate tumor volume and differences compared between treated and untreated groups.
LP-1 myeloma cells, MDAY-D2 murine leukemia/lymphoma cells, and OCI-AML2 human leukemia cells and A549 lung cancer cells were treated with increasing concentrations of compounds 5AHQ, HNQ, BCQ, COQ, and DiiodoQ (Table 1). 72 hours after incubation, cell viability was determined by an MTS assay. […]. Given the effects on cultured cells, 5AHQ was evaluated in a mouse model of leukemia. K562 cells were injected subcutaneously into NOD SCID mice. […].

[7] = tested on: MDAY-D2 leukemia/lymphoma; assay: MDAY-D2 subcutaneous tumor in NOD-Scid mice; type: in vivo; details: 100 mg/kg for 5 of 7 days
Procedure: as §2

[8] = tested on: OCI AML2 human leukemia cells; assay: OCI AML2 xenograft in NOD-Scid mice; type: in vivo; details: OCI AML2 subcutaneous; 100 mg/kg for 5 of 7 days
Procedure: as §2

[9] = tested on: myeloma cell lines; assay: Cell viability panel, myeloma cell lines; details: read-out: IC50, induced cell death
Procedure: (§3) Cells were cultured at 37° C. with 5% CO2 in a humid incubator.
(§4) Cell viability was assessed with the CellTiter96® Aqueous Non-Radioactive Assay kit according to manufactures' instructions (Promega).
(§5) The effects of clioquinol on the viability of acute leukemia/lymphoma (n=7), myeloma (n=14), and solid tumor (n=5) cell lines as well as primary AML samples (n=6) and primary normal hematopoietic cells (n=3) was tested.

[10] = tested on: solid tumor cell lines; assay: Cell viability panel, solid tumor cell lines
Procedure: as §3, §4, §5

[11] = tested on: acute leukemia/lymphoma cell lines; assay: Cell viability panel, acute leukemia/lymphoma cell lines; details: read-out: IC50, induced cell death
Procedure: as §3, §4, §5

[12] = target: T1, 20S proteasome (Homo sapiens, UniProt P28074); assay: Proteasome activity (chymotrypsin-like, Suc-LLVY-AMC); type: biochemical
T1 construct: Cellular proteins were extracted from cells with lysis buffer; endogenous in cells
T1 sequence (P28074 60-263): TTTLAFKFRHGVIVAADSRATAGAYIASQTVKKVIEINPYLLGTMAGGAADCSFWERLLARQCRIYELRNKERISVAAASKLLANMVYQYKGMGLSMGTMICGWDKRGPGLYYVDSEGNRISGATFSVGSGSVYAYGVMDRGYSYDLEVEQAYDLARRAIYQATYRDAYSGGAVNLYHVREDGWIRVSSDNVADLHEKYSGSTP
Procedure: Cellular proteins were extracted from cells with lysis buffer (50 mM HEPES pH 7.5, 150 mM NaCl, 2 mM ATP, and 1% Triton X-100). The chymotrypsin-like activity of the proteasome was measured by incubating equal amounts of protein with the preferential chymotrypsin-like substrate Suc-LLVY-AMC in assay buffer (50 mM Tris-HCl, pH 7.5, 150 mM NaCl) for two hours. After incubation, […] and the rate of free AMC was measured over time with a florescent spectrophotometric plate reader (excitation=380 nm, emission=460 nm).

[13] = tested on: primary AML patient samples; assay: Cell viability, primary AML samples; type: cell-based; details: Homo sapiens; in 6/7 primary AML patient samples; forty-eight hours; read-out: IC50, induced cell death
[14] = tested on: primary normal hematopoietic cells; assay: Cell viability, primary normal hematopoietic cells; type: cell-based; details: forty-eight hours
[15] = tested on: cyclin D2 promoter; assay: High throughput screen for inhibitors of cyclin D2 transactivation (luciferase); type: cell-based, Mouse; details: NIH3T3 cells with c-maf; ~5 μM; sixteen hours
From the text: The promoter of cyclin D2 (−894 to −4), containing c-maf responsive element sequence (MARE), was cloned from HeLa cell genomic DNA and subcloned into the pGL2 luciferase reporter vector (Promega, Madison, Wis.). This construct was co-transfected with pcDNA3.1 containing a neomycin resistance gene into NIH3T3 wild type cells and NIH3T3 cells stably over-expressing c-maf-IRES-GFP. Cells stably expressing c-maf, GFP, and luciferase were selected for further application.
NIH3T3 cells stably expressing c-maf and the cyclin D2 promoter driving luciferase (13,000 cells per well) were plated in 96-well plates by the Biomek FX liquid handler (Beckman, Fullerton, Calif.). The same workstation was used for plate formatting and reagent distribution. […] After incubation, cyclin D2 transactivation was assessed by the luciferase assay and viability was assessed by the MTS assay.
Luciferase activity was assessed according to the manufacturer's instructions (Promega, Madison, Wis.). […] After 10 min incubation, an equal volume of Bright-Glo Luciferase substrate (Promega) was added and the luminescence signal was detected with a 96-well Luminoskan luminescence plate reader (Thermo Labsystem, Waltham, Mass.) with a 5 second integration. […]

[16] = tested on: p21 and p27; assay: p21 and p27 expression in myeloma and leukemia cells; type: cell-based; details: low micromolar concentrations
Procedure: To prepare cytosolic extracts, NIH3T3 cells and myeloma cells were washed with phosphate-buffered saline (PBS, pH 7.4) and suspending in lysis buffer [10 mM Tris (pH 7.4), 150 mM NaCl, 0.1% Triton X-100, 0.5% sodium deoxycholate, and 5 mM EDTA] containing protease inhibitors (Complete tablets, Roche, Indianapolis, Ind.). Protein concentrations were determined by the Bradford assay. Immunoblot assays were performed by subjecting equal amounts of protein to SDS-PAGE gels followed by transfer to Nitrocellulose membranes. Membranes were probed with polyclonal rabbit anti-human cyclin D2 (0.5 μg/ml, both from Santa Cruz Biotech, Santa Cruz, Calif.), or monoclonal mouse-anti human p21 (1:200 v/v, Santa Cruz Biotech), monoclonal mouse-anti human p27 (1:2,500 v/v BD Transduction Laboratories), polyclonal mouse-anti human ubiquitin (1:2,000 v/v Calbiochem) and monoclonal mouse-anti-β-actin (1:10,000 v/v) (Sigma, St. Lois, Mo.). […] Detection was performed by the Enhanced Chemical Luminescence (ECL) method (Pierce, Rockford, Ill.).
Cyclin D2 is over-expressed in multiple myeloma (MM) and a subset of high-risk patients with acute myeloid leukemia (AML), contributing to their pathogenesis and chemoresistance (17, 18) (19). […] Sixteen hours after the addition of the compounds, luciferase expression was measured as a marker of cyclin D2 transactivation. […]

[17] = tested on: myeloma and leukemia cells; assay: Cell cycle analysis; type: cell-based; details: low micromolar concentrations
Procedure: Cells were harvested, washed with cold PBS, suspended in 70% cold ethanol and incubated overnight at −20° C. Cells were then treated with 100 ng/ml of DNase-free RNase (InvitroGen) at 37° C. for 30 min, washed with cold PBS, and resuspended in PBS with 50 μg/ml of propidium iodine. DNA content was analyzed by flow cytometry (FACSCalibur, Becton Dickinson, Florida, USA). The percentage of cells in each phase of the cell cycle was calculated with ModiFit software (Becton Dickinson).
Cyclin D2 is over-expressed in multiple myeloma (MM) and a subset of high-risk patients with acute myeloid leukemia (AML), contributing to their pathogenesis and chemoresistance (17, 18) (19). One of the regulators of cyclin D2 is the oncogene c-maf that is also frequently over-expressed in MM (27). Therefore, it was sought to identify c-maf dependent and independent inhibitors of cyclin D2. To identify such small molecule inhibitors, a high throughput chemical genomics screen was developed. […] Sixteen hours after the addition of the compounds, luciferase expression was measured as a marker of cyclin D2 transactivation. […]

[18] = tested on: MDAY-D2 leukemia/lymphoma cells; type: in vivo, mice; details: oral 100 mg/kg twice daily, 10 days
Procedure: DBA-2 mice were injected intraperitoneally with MDAY-D2 murine leukemia cells. Mice were then treated twice daily by oral gavage with clioquinol (100 mg/kg) dissolved in intralipid or intralipid control. Ten days after treatment, mice were sacrificed, the intraperitoneal tumor excised, and the weight and volume of the tumor measured.
as §2, with “Caliper measurements were performed twice weekly to estimate tumor volume and differences compared between treated and untreated groups.” left out

[19] = after oral administration, patients; cited from earlier work
[20] = target: T2, proteasome (Homo sapiens, UniProt P28074); assay: Proteasome inhibition in cells; details: resistant cells (for clioquinol including normal hematopoietic cells)
T2 sequence (P28074 60-263): T1 sequence (P28074 60-263)
Procedure: Cellular proteins were extracted from cells with lysis buffer (50 mM HEPES pH 7.5, 150 mM NaCl, 2 mM ATP, and 1% Triton X-100). The chymotrypsin-like activity of the proteasome was measured by incubating equal amounts of protein with the preferential chymotrypsin-like substrate Suc-LLVY-AMC in assay buffer (50 mM Tris-HCl, pH 7.5, 150 mM NaCl) for two hours. After incubation, was added and the rate of free AMC was measured over time with a florescent spectrophotometric plate reader (excitation=380 nm, emission=460 nm).

Row | SMILES | LD50 whole cell, LP1 [1] | LD50 whole cell, AML2 [2] | LD50 whole cell, MDAY-D2 [3] | LD50 whole cell, A549 [4] | K (stability) [5] | IC50 [9] | IC50 [11] | IC50 [12] | further results
1 | Nc1ccc(O)c2ncccc12 [5AHQ, 5-amino-8-hydroxyquinoline] | 12.5 μm | 3.9 μm | 7.8 μm | 31.25 μm | 9.84 | < 15 µM | < 15 µM | – | tumor weight and volume ([6]; 50 mg/kg in water, oral gavage, three weeks after injection of cells): reduced tumor weight and volume; tumor growth (volume) ([6]; K562 subcutaneous, 100 mg/kg for 5 of 7 days): delayed tumor growth; efficacy dose in mice xenografts ([6]; mouse, in vivo): 50 mg/kg/day; toxicity ([6]; mouse, in vivo): No significant toxicity; tumor growth (volume) [7]: delayed tumor growth; tumor growth (volume) [8]: delayed tumor growth; IC50 ([10]; read-out: IC50, induced cell death): < 15 µM
2 | Oc1c(Br)cc(Cl)c2cccnc12 [BCQ, 7-bromo-5-chloro-8-hydroxyquinoline] | 31.25 μm | – | – | – | 10.24 | – | – | 15.6 µM | –
3 | O=[N+]([O-])c1ccc(O)c2ncccc12 [HNQ, 8-hydroxy-5-nitroquinoline] | 15.6 μm | – | – | – | 9.13 | – | – | 15.6 µM | –
4 | Oc1c(I)cc(I)c2cccnc12 [DiiodoQ, reference compound] | – | 62.5 μm | 31.25 μm | 250 μm | – | – | – | > 1000 µM | –
5 | Oc1ccc(Cl)c2cccnc12 [COQ, 5-chloro-8-hydroxyquinoline] | 31.25 μm | 3.9 μm | 3.9 μm | 62.5 μm | 8.89 | – | – | 62.5 µM | –
6 | Oc1c(I)cc(Cl)c2cccnc12 [Clioquinol, 5-chloro-7-iodo-8-hydroxyquinoline, reference compound] | 31.25 μm | 3.9 μm | 15.6 μm | 250 μm | 9.06 | < 20 µM | < 20 µM | 12.5 µM | IC50 [13]: < 20 µM; samples with induced cell death at IC50<20 μM [14]: 0/3; inhibition of cyclin D2 promoter (luciferase) [15]: c-maf independent inhibitors of the cyclin D2 promoter; p21 and p27 expression [16]: increased expression of p21 and p27; cell cycle effect [17]: arrested cells in the G1 phase; tumor progression [18]: delayed tumor progression; trough serum concentration [19]: 20 µM; proteasomal inhibition in compound-resistant cells [20]: no proteasomal inhibition was detected; cell lines with induced cell death at IC50<20 μM ([10]; solid tumor, forty-eight hours): 0/5

Reference: patent publication US20110144155A1, “8-HYDROXYQUINOLINE DERIVATIVES FOR THE TREATMENT OF HEMATOLOGICAL MALIGNANCIES” (priority 2008, published 2011)
